Experimental data published in ChEMBL document CHEMBL1671651, “Azithromycin in Pseudomonas aeruginosa biofilms: bactericidal activity and selection of nfxB mutants” (2009).
≈ marks a conversion by molar mass, not a printed value.

Experiments:
Assay type in all cases: functional
[1] = system: Pseudomonas aeruginosa; test: Antimicrobial activity against mutS::lox-deficient Pseudomonas aeruginosa PAOMSB biofilm harboring nfxB T77C mutant gene selected at 4 ug/ml of azithromycin after 6 passages by Etest method
[2] = system: Pseudomonas aeruginosa; test: Antimicrobial activity against mutS::lox-deficient Pseudomonas aeruginosa PAOMSB biofilm harboring nfxB C116T mutant gene selected at 4 ug/ml of azithromycin after 5 passages by Etest method
[3] = system: Pseudomonas aeruginosa; test: Antimicrobial activity against mucA::lox-deficient Pseudomonas aeruginosa PAOMAB biofilm harboring nfxB G125T mutant gene selected at 0.5 ug/ml of azithromycin after 1 passages by Etest method
[4] = system: Pseudomonas aeruginosa; test: Antimicrobial activity against mucA::lox, mutS::lox-deficient Pseudomonas aeruginosa PAOMSAB biofilm harboring nfxB C25T mutant gene selected at 1 ug/ml of azithromycin after 2 passages by Etest method
[5] = system: Pseudomonas aeruginosa; test: Antimicrobial activity against mucA::lox-deficient Pseudomonas aeruginosa PAOMA biofilm by Etest method
[6] = system: Pseudomonas aeruginosa; test: Antimicrobial activity against Pseudomonas aeruginosa PAO1 A biofilm harboring duplication mutation at nucleotide 333 in nfxB gene selected at 0.5 ug/ml of azithromycin by Etest method
[7] = system: Pseudomonas aeruginosa; test: Antimicrobial activity against mutS::lox,nfxB gene-deficient Pseudomonas aeruginosa PAOMSNB biofilm by Etest method
[8] = system: Pseudomonas aeruginosa; test: Antimicrobial activity against mucA::lox, mutS::lox-deficient Pseudomonas aeruginosa PAOMSAA biofilm harboring nfxB T77C mutant gene selected at 4 ug/ml of azithromycin after 3 passages by Etest method
[9] = system: Pseudomonas aeruginosa; test: Antimicrobial activity against mutS::lox-deficient Pseudomonas aeruginosa PAOMSB biofilm harboring deletion od C534 in nfxB mutant gene selected at 4 ug/ml of azithromycin after 2 passages by Etest method
[10] = system: Pseudomonas aeruginosa; test: Antimicrobial activity against mucA::lox, mutS::lox-deficient Pseudomonas aeruginosa PAOMSAB biofilm harboring nfxB C89T mutant gene selected at 4 ug/ml of azithromycin after 6 passages by Etest method
[11] = system: Pseudomonas aeruginosa; test: Antimicrobial activity against mucA::lox, mutS::lox-deficient Pseudomonas aeruginosa PAOMSAB biofilm harboring nfxB T544C mutant gene selected at 4 ug/ml of azithromycin after 1 passages by Etest method
[12] = system: Pseudomonas aeruginosa; test: Antimicrobial activity against Pseudomonas aeruginosa PAO1 biofilm by Etest method
[13] = system: Pseudomonas aeruginosa; test: Antimicrobial activity against mucA::lox, mutS::lox-deficient Pseudomonas aeruginosa PAOMSAB biofilm harboring nfxB T86C mutant gene selected at 4 ug/ml of azithromycin after 2 passages by Etest method
[14] = system: Pseudomonas aeruginosa; test: Antimicrobial activity against mutS::lox-deficient Pseudomonas aeruginosa PAOMSA biofilm harboring nfxB C116T mutant gene selected at 1 ug/ml of azithromycin after 1 passages by Etest method
[15] = system: Pseudomonas aeruginosa; test: Antimicrobial activity against mutS::lox-deficient Pseudomonas aeruginosa PAOMSA biofilm harboring nfxB G539A mutant gene selected at 4 ug/ml of azithromycin after 6 passages by Etest method
[16] = system: Pseudomonas aeruginosa; test: Antimicrobial activity against mutS::lox-deficient Pseudomonas aeruginosa PAOMSA biofilm harboring nfxB G461A mutant gene selected at 4 ug/ml of azithromycin after 5 passages by Etest method
[17] = system: Pseudomonas aeruginosa; test: Antimicrobial activity against mutS::lox,mexD::lox-deficient Pseudomonas aeruginosa PAOMSMxD biofilm by Etest method
[18] = system: Pseudomonas aeruginosa; test: Antimicrobial activity against mutS::lox-deficient Pseudomonas aeruginosa PAOMS biofilm by Etest method
[19] = system: Pseudomonas aeruginosa; test: Antimicrobial activity against mucA::lox, mutS::lox-deficient Pseudomonas aeruginosa PAOMSAA biofilm harboring nfxB C89T mutant gene selected at 4 ug/ml of azithromycin after 6 passages by Etest method
[20] = system: Pseudomonas aeruginosa; test: Antimicrobial activity against Pseudomonas aeruginosa PAO1 A biofilm harboring deletion mutation at nucleotide 231-244 in nfxB gene selected at 1 ug/ml of azithromycin after 4 passages by Etest method
[21] = system: Pseudomonas aeruginosa; test: Antimicrobial activity against mucA::lox, mutS::lox-deficient Pseudomonas aeruginosa PAOMSAA biofilm harboring nfxB T86C mutant gene selected at 4 ug/ml of azithromycin after 2 passages by Etest method
[22] = system: Pseudomonas aeruginosa; test: Antimicrobial activity against mutS::lox-deficient Pseudomonas aeruginosa PAOMSB biofilm harboring nfxB T562C mutant gene selected at 4 ug/ml of azithromycin after 4 passages by Etest method
[23] = system: Pseudomonas aeruginosa; test: Antimicrobial activity against nfxB gene-deficient Pseudomonas aeruginosa PAONB biofilm by Etest method
[24] = system: Pseudomonas aeruginosa; test: Antimicrobial activity against mucA::lox-deficient Pseudomonas aeruginosa PAOMAA biofilm harboring nfxB C25T mutant gene selected at 1 ug/ml of azithromycin after 2 passages by Etest method
[25] = system: Pseudomonas aeruginosa; test: Antimicrobial activity against Pseudomonas aeruginosa PAO1 A biofilm harboring nfxB T248C mutant gene selected at 4 ug/ml of azithromycin after 4 passages by Etest method
[26] = system: Pseudomonas aeruginosa; test: Antimicrobial activity against mutS::lox-deficient Pseudomonas aeruginosa PAOMSB biofilm harboring nfxB T41C mutant gene selected at 4 ug/ml of azithromycin after 3 passages by Etest method
[27] = system: Pseudomonas aeruginosa; test: Antimicrobial activity against mexD::lox-deficient Pseudomonas aeruginosa PAOMxD biofilm by Etest method
[28] = system: Pseudomonas aeruginosa; test: Antimicrobial activity against mutS::lox-deficient Pseudomonas aeruginosa PAOMSA biofilm harboring nfxB T86C mutant gene selected at 4 ug/ml of azithromycin after 4 passages by Etest method
[29] = system: Pseudomonas aeruginosa; test: Antimicrobial activity against mucA::lox, mutS::lox-deficient Pseudomonas aeruginosa PAOMSA biofilm by Etest method
[30] = system: Pseudomonas aeruginosa; test: Antimicrobial activity against mutS::lox-deficient Pseudomonas aeruginosa PAOMSA biofilm harboring nfxB T533C mutant gene selected at 4 ug/ml of azithromycin after 2 passages by Etest method
[31] = system: Pseudomonas aeruginosa; test: Antimicrobial activity against mutS::lox-deficient Pseudomonas aeruginosa PAOMSA biofilm harboring nfxB T86C mutant gene selected at 4 ug/ml of azithromycin after 3 passages by Etest method
[32] = system: Pseudomonas aeruginosa; test: Antimicrobial activity against mucA::lox, mutS::lox-deficient Pseudomonas aeruginosa PAOMSAA biofilm harboring nfxB C89T mutant gene selected at 0.5 ug/ml of azithromycin after 3 passages by Etest method
[33] = system: Pseudomonas aeruginosa; test: Antimicrobial activity against mutS::lox-deficient Pseudomonas aeruginosa PAOMSB biofilm harboring nfxB T380C mutant gene selected at 0.5 ug/ml of azithromycin after 2 passages by Etest method

Row | Compound | MIC [1] [µg/mL] | MIC [2] [µg/mL] | MIC [3] [µg/mL] | MIC [4] [µg/mL] | MIC [5] [µg/mL] | MIC [6] [µg/mL] | MIC [7] [µg/mL] | MIC [8] [µg/mL] | MIC [9] [µg/mL] | MIC [10] [µg/mL] | MIC [11] [µg/mL] | MIC [12] [µg/mL] | MIC [13] [µg/mL] | MIC [14] [µg/mL] | MIC [15] [µg/mL] | MIC [16] [µg/mL] | MIC [17] [µg/mL] | MIC [18] [µg/mL] | MIC [19] [µg/mL] | MIC [20] [µg/mL] | also measured
1 | C[C@@H](O)[C@H]1C(=O)N2C(C(=O)O)=C(SCCNC=N)C[C@H]12 [IMIPENEM ANHYDROUS] | 0.5 | 0.38 | 0.25 | 0.25 | 1 (≈ 3.34 µM) | 0.25 | 0.5 (≈ 1.67 µM) | 1 | 1 | 0.38 | 1 | 1.5 (≈ 5.01 µM) | 0.25 | 1 | 0.25 | 1.5 | 1.5 (≈ 5.01 µM) | 1.5 (≈ 5.01 µM) | 0.38 | 0.38 | MIC [21]: 0.38 µg/mL; MIC [22]: 1 µg/mL; MIC [23]: 0.19 µg/mL (≈ 0.635 µM); MIC [24]: 0.38 µg/mL; MIC [25]: 0.38 µg/mL; MIC [26]: 1 µg/mL; MIC [27]: 1.5 µg/mL (≈ 5.01 µM); MIC [28]: 0.19 µg/mL; MIC [29]: 1.5 µg/mL (≈ 5.01 µM); MIC [30]: 0.38 µg/mL; MIC [31]: 0.25 µg/mL; MIC [32]: 0.38 µg/mL; MIC [33]: 0.25 µg/mL
2 | COLISTIN | 0.5 | 1.5 | 1 | 2 | 2 | 1.5 | 1.5 | 2 | 2 | 1 | 3 | 2 | 2 | 2 | 1.5 | 2 | 2 | 2 | 2 | 2 | MIC [21]: 3 µg/mL; MIC [22]: 3 µg/mL; MIC [23]: 1.5 µg/mL; MIC [24]: 1 µg/mL; MIC [25]: 1.5 µg/mL; MIC [26]: 2 µg/mL; MIC [27]: 2 µg/mL; MIC [28]: 3 µg/mL; MIC [29]: 2 µg/mL; MIC [30]: 2 µg/mL; MIC [31]: 2 µg/mL; MIC [32]: 1 µg/mL; MIC [33]: 2 µg/mL
3 | CO/N=C(\C(=O)N[C@@H]1C(=O)N2C(C(=O)[O-])=C(C[N+]3(C)CCCC3)CS[C@H]12)c1csc(N)n1 [CEFEPIME] | 12 | 12 | 12 | 8 | 1.5 (≈ 3.12 µM) | 12 | 8 (≈ 16.6 µM) | 12 | 12 | 16 | 12 | 1.5 (≈ 3.12 µM) | 12 | 12 | 12 | 8 | 1.5 (≈ 3.12 µM) | 1.5 (≈ 3.12 µM) | 16 | 12 | MIC [21]: 16 µg/mL; MIC [22]: 6 µg/mL; MIC [23]: 8 µg/mL (≈ 16.6 µM); MIC [24]: 12 µg/mL; MIC [25]: 12 µg/mL; MIC [26]: 8 µg/mL; MIC [27]: 1.5 µg/mL (≈ 3.12 µM); MIC [28]: 6 µg/mL; MIC [29]: 1.5 µg/mL (≈ 3.12 µM); MIC [30]: 8 µg/mL; MIC [31]: 16 µg/mL; MIC [32]: 12 µg/mL; MIC [33]: 12 µg/mL
